Results from ChEMBL document CHEMBL6096736, “Development of a Highly Selective Ferroptosis Inducer Targeting GPX4 with 2-Ethynylthiazole-4-carboxamide as Electrophilic Warhead” (J Med Chem, 2025).
The source made the active and inactive calls. No cut-off for these calls is given here.

Experiments:
[1] = Clearance in male Sprague-Dawley rat at 20 mg/kg, po measured upto 36 hrs by LC-MS/MS analysis; format: ADME, organism-based; conditions: in vivo
4T1 = assay: Cytotoxicity against mouse 4T1 cells
[2] = Acute toxicity in BALB/c mouse implanted with human HT-1080 cells assessed as change in ALP level at 15 to 30 mg/kg, ip administered for 7 days; format: organism-based; conditions: in vivo, 168 h, dose 15-30 mg/kg, time 7 day
[3] = Acute toxicity in BALB/c mouse implanted with human HT-1080 cells assessed as change in UREA level at 15 to 30 mg/kg, ip administered for 7 days; format: organism-based; conditions: in vivo, 168 h, dose 15-30 mg/kg, time 7 day
CAL-27 = assay: Cytotoxicity against human CAL-27 cells
[4] = Acute toxicity in BALB/c mouse implanted with human HT-1080 cells assessed as spleen damage at 15 to 30 mg/kg, ip administered for 7 days by H and E staining based analysis; format: organism-based; conditions: in vivo, 168 h, dose 15-30 mg/kg, time 7 day
HT-1080 [5] = assay: Induction of ferroptosis in human HT-1080 cells assessed as reduction in cell viability incubated for 24 hrs in presence of Fer-1 by CCK-8 assay; conditions: HT-1080, 24 h
HT-1080 [6] = assay: Induction of ferroptosis in human HT-1080 cells assessed as increase in cellular MDA level at 0.1 uM incubated for 6 hrs; format: functional, cell-based
[7] = Toxicity in BALB/c mouse implanted with human HT-1080 cells assessed as change in body weight at 15 to 30 mg/kg, ip administered for 6 days and measured after 2 weeks; format: organism-based; conditions: in vivo, 480 h, dose 15-30 mg/kg, time 20 day
[8] = Clearance in male Sprague-Dawley rat at 2 mg/kg, iv measured upto 36 hrs by LC-MS/MS analysis; format: ADME, organism-based; conditions: in vivo
[9] = Oral bioavailability in male Sprague-Dawley rat at 20 mg/kg measured upto 36 hrs by LC-MS/MS analysis; format: ADME, organism-based; conditions: in vivo
HT-1080 [10] = assay: Induction of ferroptosis in human HT-1080 cells assessed as increase in cellular ROS level at 0.1 uM incubated for 3 hrs by DCFH-DA staining based flow cytometry analysis; format: functional, cell-based
[11] = Acute toxicity in BALB/c mouse implanted with human HT-1080 cells assessed as kidney damage at 15 to 30 mg/kg, ip administered for 7 days by H and E staining based analysis; format: organism-based; conditions: in vivo, 168 h, dose 15-30 mg/kg, time 7 day
HepG2 = assay: Cytotoxicity against human HepG2 cells
[12] = Half life in male Sprague-Dawley rat at 20 mg/kg, po measured upto 36 hrs by LC-MS/MS analysis; format: ADME, organism-based; conditions: in vivo
[13] = Cmax in male Sprague-Dawley rat at 2 mg/kg, iv measured upto 36 hrs by LC-MS/MS analysis; format: ADME, organism-based; conditions: in vivo
[14] = AUC (0 to t) in male Sprague-Dawley rat at 2 mg/kg, iv measured upto 36 hrs by LC-MS/MS analysis; format: ADME, organism-based; conditions: in vivo
HT-1080 [15] = assay: Cytotoxicity against human HT-1080 cells in presence of Z-VAD-FMK
HT-1080 [16] = assay: Induction of morphological changes in human HT-1080 cells assessed as […] of mitochondria cristas by TEM analysis; format: functional, cell-based
[17] = Cmax in male Sprague-Dawley rat at 20 mg/kg, po measured upto 36 hrs by LC-MS/MS analysis; format: ADME, organism-based; conditions: in vivo
[18] = Acute toxicity in BALB/c mouse implanted with human HT-1080 cells assessed as change in AST level at 15 to 30 mg/kg, ip administered for 7 days; format: organism-based; conditions: in vivo, 168 h, dose 15-30 mg/kg, time 7 day
HT-1080 [19] = assay: Cytotoxicity against human HT-1080 cells assessed as cell viability incubated for 24 hrs by CCK-8 assay; conditions: HT-1080, 24 h
[20] = Acute toxicity in BALB/c mouse implanted with human HT-1080 cells assessed as lung damage at 15 to 30 mg/kg, ip administered for 7 days by H and E staining based analysis; format: organism-based; conditions: in vivo, 168 h, dose 15-30 mg/kg, time 7 day
HT-1080 [21] = assay: Induction of ferroptosis in human HT-1080 cells assessed as increase in cellular MDA level at 0.1 uM incubated for 6 hrs in presence of Fer-1; format: functional, cell-based
[22] = Acute toxicity in BALB/c mouse implanted with human HT-1080 cells assessed as heart damage at 15 to 30 mg/kg, ip administered for 7 days by H and E staining based analysis; format: organism-based; conditions: in vivo, 168 h, dose 15-30 mg/kg, time 7 day
HT-1080 [23] = assay: Antitumor activity against human HT-1080 cells xenografted in BALB/c mouse assessed as reduction in tumor weight at 15 to 30 mg/kg, ip administered for 6 days and measured after 2 weeks; format: functional, organism-based; conditions: dose 15-30 mg/kg, time 20.0 day
[24] = Cytotoxicity against human LO2 cells; format: toxicity, cell-based, L02
[25] = AUC (0 to t) in male Sprague-Dawley rat at 20 mg/kg, po measured upto 36 hrs by LC-MS/MS analysis; format: ADME, organism-based; conditions: in vivo
[26] = Acute toxicity in BALB/c mouse implanted with human HT-1080 cells assessed as change in ALT level at 15 to 30 mg/kg, ip administered for 7 days; format: organism-based; conditions: in vivo, 168 h, dose 15-30 mg/kg, time 7 day
[27] = Half life in male Sprague-Dawley rat at 2 mg/kg, iv measured upto 36 hrs by LC-MS/MS analysis; format: ADME, organism-based; conditions: in vivo
HT-1080 [28] = assay: Antitumor activity against human HT-1080 cells xenografted in BALB/c mouse assessed as tumor growth inhibition at 30 mg/kg, ip administered for 6 days and measured after 2 weeks; format: functional; conditions: HT-1080, 480 h, time 20 day, read-out: TGI
MCF7 = assay: Cytotoxicity against human MCF7 cells
HT-1080 [29] = assay: Cytotoxicity against human HT-1080 cells assessed as cell survival incubated for 24 hrs by CCK-8 assay; conditions: HT-1080, 24 h
[30] = Acute toxicity in BALB/c mouse implanted with human HT-1080 cells assessed as change in CREA level at 15 to 30 mg/kg, ip administered for 7 days; format: organism-based; conditions: in vivo, 168 h, dose 15-30 mg/kg, time 7 day
HT-1080 [31] = assay: Cytotoxicity against human HT-1080 cells assessed as cell survival incubated for 24 hrs in presence of DFO by CCK-8 assay; conditions: HT-1080, 24 h
HT-1080 [32] = assay: Induction of ferroptosis in human HT-1080 cells assessed as increase in cellular LPO level at 0.1 uM incubated for 3 hrs by BIODPY-C11 probe based flow cytometry analysis; format: functional, cell-based
[33] = Acute toxicity in BALB/c mouse implanted with human HT-1080 cells assessed as liver damage at 15 to 30 mg/kg, ip administered for 7 days by H and E staining based analysis; format: organism-based; conditions: in vivo, 168 h, dose 15-30 mg/kg, time 7 day
HT-1080 [34] = assay: Induction of morphological changes in human HT-1080 cells assessed as appearance of round shaped mitochondria by TEM analysis; format: functional, cell-based
HT-1080 [35] = assay: Antitumor activity against human HT-1080 cells xenografted in BALB/c mouse assessed as tumor growth inhibition at 15 mg/kg, ip administered for 6 days and measured after 2 weeks; format: functional; conditions: HT-1080, 480 h, time 20 day, read-out: TGI

Q: Which CL/F [1] does the source give for `C#Cc1nc(C(=O)N(c2ccc(-c3cnco3)cc2)[C@@H](C(=O)NC(C)(C)C)c2csc3ccccc23)cs1` here?
A: 5670 mL/min/kg

Q: And the IC50 (4T1)?
A: 89 nM

Q: And the Activity [2]?
A: Non-toxic

Q: And the Activity [3]?
A: Non-toxic

Q: And the IC50 (CAL-27)?
A: 2680 nM

Q: And the Activity [4]?
A: Non-toxic

Q: What about the IC50 (HT-1080 [5]) of the same compound?
A: 7480 nM

Q: And the Activity (HT-1080 [6])?
A: Active

Q: And the Activity [7]?
A: Non-toxic

Q: And the clearance [8]?
A: 282 mL/min/kg

Q: And the bioavailability [9]?
A: 6.67%

Q: And the Activity (HT-1080 [10])?
A: Active

Q: What about the Activity [11] of the same compound?
A: Non-toxic

Q: What about the IC50 (HepG2) of the same compound?
A: 56 nM

Q: And the half-life [12]?
A: 2.37 h

Q: What about the Cmax [13] of the same compound?
A: 271 ng/mL

Q: What about the AUC(0-t) at 36 h [14] of the same compound?
A: 122 ng·h/mL

Q: What about the IC50 (HT-1080 [15]) of the same compound?
A: 0.2 nM

Q: What about the Activity (HT-1080 [16]) of the same compound?
A: Active

Q: And the Cmax [17]?
A: 20.8 ng/mL

Q: What about the Activity [18] of the same compound?
A: Non-toxic

Q: And the IC50 (HT-1080 [19])?
A: 3 nM

Q: What about the Activity [20] of the same compound?
A: Non-toxic

Q: What about the Activity (HT-1080 [21]) of the same compound?
A: Weak_effect

Q: And the Activity [22]?
A: Non-toxic

Q: What about the Activity (HT-1080 [23]) of the same compound?
A: Active

Q: And the IC50 [24]?
A: 5140 nM

Q: And the AUC(0-t) at 36 h [25]?
A: 79.4 ng·h/mL

Q: What about the Activity [26] of the same compound?
A: Non-toxic

Q: What about the half-life [27] of the same compound?
A: 1.05 h

Q: And the inhibition in vivo at 30 mg/kg (HT-1080 [28])?
A: 49.4%

Q: What about the IC50 (MCF7) of the same compound?
A: 451 nM

Q: What about the IC50 (HT-1080 [29]) of the same compound?
A: 22 nM

Q: What about the Activity [30] of the same compound?
A: Non-toxic

Q: And the IC50 (HT-1080 [31])?
A: 3950 nM

Q: What about the Activity (HT-1080 [32]) of the same compound?
A: Active

Q: And the Activity [33]?
A: Non-toxic

Q: What about the Activity (HT-1080 [34]) of the same compound?
A: Active

Q: And the inhibition in vivo at 15 mg/kg (HT-1080 [35])?
A: 36.5%
